Data from patent US20240398737A1, “FUNCTIONALIZED LONG-CHAIN HYDROCARBON MONO- AND DI-CARBOXYLIC ACIDS AND DERIVATIVES THEREOF, AND THEIR USE FOR THE PREVENTION OR TREATMENT OF DISEASE” (Espervita Therapeutics, Inc., priority 2021, published 2024).

What was measured:
[1] = Single and repeat dose plasma and tissue pharmacokinetics in male C57BL/6 mice; type: in vivo, mouse; settings: for Bioavailability in brain compared to liver (fold lower): 20 mg/kg PO, male C57BL/6 mice; for Cmax / Tmax / AUC(0-t): male, C57BL/6, mouse, po
Source text: Materials and methods. The study involved two arms: a single dose pharmacokinetic study and a 4-day repeated-dose pharmacokinetic study. For each arm, 56 inbred male C57BL/6 mice, aged at 6-7 week, were included. All animals were purchased from Charles River Lab (CRL, MA). Upon their arrival, they were kept in special-pathogen-free environment all the time. Briefly, they were housed in group on corncob bedding (ScottPharma, MA) in Innovive® caging system (Innovive, CA) on a 12-hour light-dark cycle (0700-1900) at 68-74° F. and 30-70% humidity. They were allowed continually to access water and regular rodent Purina 5001 diet (ScottPharma, MA) ad libitum and to acclimate in the facility for 5 days. Animal handling and procedures were conducted under the protocols and/or guidelines approved by the Institutional Animal Care and Use Committee (IACUC) of […] Biosciences, Inc. […] Also, 2× drug vehicle (3% CMC+0.4% Tween-20) was prepared and stored at 4° C. for a week. On the day of injection, 1 ml frozen 2× aqueous stock solution (20 mg/ml drug solution) aliquot is thawed and mix with another 1 ml 2× drug vehicle (3% Carboxymethyl cellulose+0.4% Tween 20) to prepare 10 mg/ml drug solution. A 25 g mouse would receive 250 μl of 10 mg/ml solution for a dose of 100 mg/kg. Lower concentrations can be achieved by further diluting the 10 mg/ml in 1× vehicle solution with 1× vehicle prepared with milliQ water. On each dosing day, both compound stocks and 2× vehicle were warmed to room temperature and was mixed at 1:1 ratio, given to a concentration of 10 mg/mL. Then 1:5-fold dilutions were obtained with 1× vehicle to 2 mg/mL. Dosing volume at 10 mL/kg (final dosage: 20 mg/kg) in the morning. Route of administration is oral gavage (volume of 10 ml/kg body weight). Study Design. In each group 4 male 6-7-week-old C57BL/6 mice were used. Doses were administered once daily via oral gavage for either a day (single dose arm, QDx1) or 4 consecutive days (repeated dose arm, QDx4) (FIG. 24). Blood, half of brain hemisphere, and one lobe of liver samples were collected from all animals of Day 1 (QDx1 arm) at pre-dose and 0.25, 2, 4, 8, 24 and 36 hours post dose, or Day 4 (QDx4 arm) at pre-dose and 0.25, 2, 4, 8, 24 and 48 hours post dose. Blood samples were collected by cardiac puncture. The blood samples were maintained in wet ice first and centrifuged to obtain plasma (2000×g, 4° C., 5 min). All three samples from each mouse were analyzed for either Compound I-1 or Compound I-32 contents by Integrated Analytical Solutions (Berkeley, CA) and the results were used for the generation of the pharmacokinetic graphs. Sample collection, storage, bioanalysis and statistical analysis. All plasma and tissue samples were analyzed by discovery grade bioanalytical method developed for estimation of each test compound in plasma and tissue samples using LC-MS/MS systems. Plasma samples were prepared as follows. Three volumes of acetonitrile containing internal standard was added to one volume of plasma to precipitate proteins. Samples were centrifuged (3000×g for 10 min) and supernatant removed for analysis by LC-MS/MS. Calibration standards and quality controls were made by preparation of a 1 mg/mL stock solution in MeOH and subsequently a series of working solutions in MeOH:water (1:1, v/v) which were spiked into blank plasma to yield a series of calibration standard samples in the range of 1.0 ng/mL to 10 μg/mL. All incurred PK/PD plasma samples were treated identically to the calibration standards and quality control samples. LC-MS/MS analysis was performed utilizing multiple reaction monitoring for detection of characteristic ions for each drug candidate, additional related analytes and internal standard. Tissue samples were prepared as follows. Three volumes of PBS buffer (pH 7.4) were added to one volume of each tissue sample which was then homogenized to obtain each tissue homogenate sample. […]

[2] = target: PIM3 (Homo sapiens (Human), UniProt Q86V86); test: Wild type kinase screen: PIM3; type: biochemical; settings: compound at 10 μM, 10 μM ATP, Data 1 and Data 2 duplicates
[3] = brain, 20 mg/kg, mouse brain, QD × 1, value in parentheses marked * (reanalysis per footnote of Tables 8-9)
[4] = brain, 20 mg/kg, mouse brain, QD × 4, value in parentheses marked * (reanalysis per footnote of Tables 8-9)
[5] = brain, 20 mg/kg/day, mouse brain, 20 mg/kg/day PO, 4 consecutive days (QD × 4)
[6] = brain, 20 mg/kg/day, mouse brain, 20 mg/kg/day PO, single dose (QD × 1)
[7] = liver, 20 mg/kg, mouse liver, QD × 1, value in parentheses: timepoint 0.25 h samples after reanalysis
[8] = liver, 20 mg/kg, mouse liver, QD × 4, value in parentheses: timepoint 0.25 h samples after reanalysis
[9] = liver, 20 mg/kg/day, mouse liver, 20 mg/kg/day PO, 4 consecutive days (QD × 4)
[10] = liver, 20 mg/kg/day, mouse liver, 20 mg/kg/day PO, single dose (QD × 1)
[11] = plasma, 20 mg/kg, mouse plasma, QD × 1, value in parentheses: timepoint 0.25 h samples after reanalysis
[12] = plasma, 20 mg/kg, mouse plasma, QD × 4, value in parentheses: timepoint 0.25 h samples after reanalysis
[13] = plasma, 20 mg/kg/day, mouse plasma, 20 mg/kg/day PO, 4 consecutive days (QD × 4)
[14] = plasma, 20 mg/kg/day, mouse plasma, 20 mg/kg/day PO, single dose (QD × 1)
[15] = mouse brain, 20 mg/kg/day PO, 4 consecutive days (QD × 4)
[16] = mouse brain, 20 mg/kg/day PO, single dose (QD × 1)
[17] = mouse liver, 20 mg/kg/day PO, 4 consecutive days (QD × 4)
[18] = mouse liver, 20 mg/kg/day PO, single dose (QD × 1)

| SMILES | Bioavailability in brain compared to liver (fold lower) [1] | Cmax [1, 5] [ng/g] | Tmax [1, 5] [min] | Cmax [1, 6] [ng/g] | Tmax [1, 6] [min] | Cmax [1, 9] [ng/g] | Tmax [1, 9] [min] | Cmax [1, 10] [ng/g] | Tmax [1, 10] [min] | AUC(0-t) [1, 13] [µg·h/mL] | Cmax [1, 13] [µg/mL] | Tmax [1, 13] [min] | AUC(0-t) [1, 14] [µg·h/mL] | Cmax [1, 14] [µg/mL] | Tmax [1, 14] [min] | AUC0-t (h*ng/g) [1, 15] | AUC0-t (h*ng/g) [1, 16] | AUC0-t (h*ng/g) [1, 17] | AUC0-t (h*ng/g) [1, 18] | % Enzyme Activity (relative to DMSO controls) [2] [%] | other results |
| --- | --- | --- | --- | --- | --- | --- | --- | --- | --- | --- | --- | --- | --- | --- | --- | --- | --- | --- | --- | --- | --- |
| CC(C)(CCCCc1ccc(CCCCC(C)(C)C(=O)O)cc1)C(=O)O [Compound I-1, 6-[4-(5-carboxy-5-methylhexyl)-phenyl]-2,2-dimethylhexanoic acid] | 300-400 fold | 168 | 240 | 492 | 120 | 30900 | 15 | 27000 | 15 | 1170 | 102 | 15 | 1380 | 102 | 15 | 1,220 h*ng/g | 1,183 h*ng/g | 687,414 h*ng/g | 425,184 h*ng/g | 83 | Cmax [1, 3]: 1020 ng/g; Tmax [1, 3]: 15 min; Cmax [1, 4]: 1390 ng/g; Tmax [1, 4]: 15 min; Cmax [1, 7]: 21500 ng/g; Tmax [1, 7]: 15 min; Cmax [1, 8]: 46600 ng/g; Tmax [1, 8]: 15 min; AUC(0-t) [1, 11]: 1670 µg·h/mL; Cmax [1, 11]: 90 µg/mL; Tmax [1, 11]: 15 min; AUC(0-t) [1, 12]: 1090 µg·h/mL; Cmax [1, 12]: 76.1 µg/mL; Tmax [1, 12]: 15 min; AUC0-t (h*ng/g) ([1]; mouse brain, QD × 1, value in parentheses marked * (reanalysis per footnote of Tables 8-9)): (2,091)* h*ng/g; AUC0-t (h*ng/g) ([1]; mouse brain, QD × 4, value in parentheses marked * (reanalysis per footnote of Tables 8-9)): (3,995)* h*ng/g; AUC0-t (h*ng/g) ([1]; mouse liver, QD × 1, value in parentheses: timepoint 0.25 h samples after reanalysis): (469,726)* h*ng/g; AUC0-t (h*ng/g) ([1]; mouse liver, QD × 4, value in parentheses: timepoint 0.25 h samples after reanalysis): (718,455)* h*ng/g |
| CC(C)(CCCCc1cccc(CCCCC(C)(C)C(=O)O)c1)C(=O)O [Compound I-32, 6-[3-(5-carboxy-5-methylhexyl)-phenyl]-2,2-dimethylhexanoic acid] | 300-400 fold | 604 | 240 | 362 | 120 | 43000 | 240 | 25100 | 120 | 758 | 76.5 | 240 | 240 | 50.2 | 120 | 6,304 h*ng/g | 1,527 h*ng/g | 100,6991 h*ng/g | 405,934 h*ng/g | 86.73 | – |
